{"source": "patent US20120041068A1", "about": "“Extended Release Pharmaceutical Preparations for Active Pharmaceutical Ingredients with pH Dependent Solubility” (Aptapharma, Inc., priority 2010, published 2012)", "assay": "Effect of crystallization inhibitor on guanfacine HCl solubility (clear vs precipitate on storage)", "type": "physicochemical", "settings": "in the presence of polyvinyl pyrrolidone vs comparison formulation without polyvinyl pyrrolidone", "description": "As crystallization inhibitors, highly dispersed silicon dioxide or macromolecular substances are suitable.", "note": "Counter-ions that a name gives are not always drawn."}
{"compound": "N=C(N)NC(=O)Cc1c(Cl)cccc1Cl", "note": "[guanfacine, guanfacine hydrochloride]", "values": [{"measurement": "tendency toward crystal formation", "result": "less tendency toward crystal formation"}]}
